# Test results reported in publication PMC2699117, “Drug Discovery Using Chemical Systems Biology: Repositioning the Safe Medicine Comtan to Treat Multi-Drug and Extensively Drug Resistant Tuberculosis” (PLoS Computational Biology, 2009).
# Molecular target: T1, InhA (enoyl-acyl carrier protein reductase) (Mycobacterium tuberculosis, UniProt P9WGR1)
# T1 construct: wild-type InhA
# Assay: biochemical
# T1 sequence (P9WGR1 whole entry, looked up): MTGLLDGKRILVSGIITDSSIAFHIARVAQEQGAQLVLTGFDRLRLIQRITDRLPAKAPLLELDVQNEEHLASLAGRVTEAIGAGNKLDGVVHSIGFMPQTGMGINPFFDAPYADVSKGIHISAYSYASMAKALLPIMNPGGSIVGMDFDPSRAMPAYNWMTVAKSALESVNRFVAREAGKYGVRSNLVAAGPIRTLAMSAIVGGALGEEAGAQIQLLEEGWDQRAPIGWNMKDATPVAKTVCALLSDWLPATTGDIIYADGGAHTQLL
smiles,measurement,value
CCN(CC)C(=O)/C(C#N)=C/c1cc(O)c(O)c([N+](=O)[O-])c1 [entacapone],IC50,79 ± 10 µM
